pIC50: −log10 of the molar value.
Experiments:
Male ICR mice = assay: Visceral pain induced by i.p. acetic acid; format: in vivo, mouse
Protocol: Male ICR mice (25 g average body weight, Harlan, Israel) were pretreated by i.v. injection at volume dose of 5 ml/kg of vehicle, control and test compounds at various doses. Each treatment group was composed of at least 4 animals. Fifteen minutes later, the mice were injected i.p. with 10 ml/kg of 0.6% acetic acid and the number of withers is counted over a period of 5 minutes, starting 5 minutes after the acetic acid administration. The results are expressed as mean number of withers±SD.

[1] = test system: BALB/c inbred female mice; assay: ConA induced liver injury; format: in vivo, mouse; details: 1 mg/kg i.v., 8 hours of ConA treatment
Protocol: Each experimental group contains at least 5 BALB/c inbred female mice (25 g average weight, Harlan, Israel). The negative control group is composed of mice injected with saline instead of ConA. The injection of ConA (Sigma) is done i.v. at the base of the tail at the dose of 10 mg/kg in saline. The treatments are injected i.v. at 1 mg/kg, 30 minutes prior to the ConA injection. Compounds are dissolved in CREMOPHOR EL®:ethanol and vehicle only was included as an internal control.
Impact of treatment is monitored at three levels. First, blood samples (200-400 μl) are collected at predetermined time points alter ConA injection, using retro-orbital puncture. After short centrifugation (5000 rpm for 2 min) serum is recovered and stored at −80° C. until further use for determination of cytokines levels by ELISA and aminotransferase leakage from the liver as a marker for liver injury. In parallel, the level of cytokines, or other inflammatory mediators, is also determined in the organs of interests. For this purpose, the mice are killed by dislocation of the cervical vertebrae, at predetermined time points following ConA injection. […] Cells are incubated for 24 hours and cytokine levels in the supernatant are determined by ELISA as previously described.
The effect of compound A on liver injury was assessed by measuring the level of ALT in the plasma following 8 hours of ConA treatment. […]

ICR male mice = assay: Development of tolerance on repeated administration, tail flick model; details: 10 mg/kg twice daily i.p.
Protocol: ICR male mice (20-30 g average body weight, Harlan, Israel) were injected i.p. at the volume dose of 5 ml/kg. Each treatment group contained at least 6 animals. Morphine HCl was used as positive control at the final dose of 5 mg/kg. Its vehicle, saline, was also included as control. The test compounds were dissolved in CREMOPHOR EL®:ethanol and diluted 1:20 in saline prior to injection, this second type of vehicle was also included as negative control. The final dose injected varied from 0.1 to 10 mg/kg. At predetermined time points after treatment injection, the animals were placed in the tail flick system (Socrel, model DS 20). Animals were gently held while their tails were located above the photoelectric cell. The tails were then illuminated (21V) at 2 cm from the distal tip and the latency time, measured in seconds, was recorded in duplicates. At the end of the study, the animals were euthanized by i.p. injection of 100 mg/kg sodium pentobarbitone.
Tolerance was assessed in the tail flick model above described. Briefly, the test compounds were administered twice daily i.p. for up to 10 days to groups of 10 animals each. The noxious pain threshold was measured as previously described in example 13 thirty minutes after the first drug administration on days 1, 4, 8 and 10. Results are expressed as mean latency time till the animal flicked its tail±SE. The differences between the latency times or the % of animals showing analgesia among various treatment groups was analyzed by analysis of variance (ANOVA) followed by post-hoc Tukey's test (for latency) or Fisher's exact test (for % animals). A value of p<0.05 is considered to be statistically significant.

human CB1 receptor = target: T1, human CB1 receptor (Homo sapiens, UniProt P21554); assay: Adenylylcyclase assay: forskolin-activated cAMP in CB1 transfected HEK-293 cells; format: cell-based
T1 construct: purchased Perkin Elmer/NEN; host or cells: HEK-293 cells, stably transfected (membranes)
Protocol: Cannabinoids and derivatives bind to G-protein-coupled CB1 and CB2 receptors and exert their activity via the inhibition of adenylylcyclase activity. An adenylylcyclase assay forms a basis for the functional analysis of the compounds by determining their capacity to inhibit or promote forskolin-activated cAMP production. The assay is carried out according to Chin et al. (Chin, C. N. et al., J. Neurochem. 70: 366-73, 1998). Briefly, HEK-293 human kidney cells (ATCC#CRL-1573) stably transfected with either the human CB1 or CB2 receptor (cDNA) were grown in DMEM supplemented with 10% fetal calf serum, 1% Penicillin-Streptomycin and 2 mM L-glutamine. Cells were seeded in 24 wells plate at 5×10^4 cells/well and incubated for 48 hours. Medium was then removed and the adherent cells were washed with PBS. Two hundred μl of serum free medium supplemented with 0.2 mM Ro 20-1724, 0.25% BSA, and 20 mM HEPES was then added to each well. The cells were then activated with 1 μM forskolin in presence of the bicyclic test compounds in concentrations ranging from 10 pM up to 1 μM. The activated cells were then incubated at 37° C. for 20 minutes and the reaction terminated with 1.2 M HCl to a final concentration of 0.1 M. Cells were lyzed by freeze and thaw and the lysate was neutralized with 2 M HEPES, pH 7.5. cAMP was measured in 50 μl aliquots using the [^3H]-cAMP assay system (Amersham).
This experiment was first performed on CB2 receptor transfected cells.

T1 sequence (P21554 whole entry): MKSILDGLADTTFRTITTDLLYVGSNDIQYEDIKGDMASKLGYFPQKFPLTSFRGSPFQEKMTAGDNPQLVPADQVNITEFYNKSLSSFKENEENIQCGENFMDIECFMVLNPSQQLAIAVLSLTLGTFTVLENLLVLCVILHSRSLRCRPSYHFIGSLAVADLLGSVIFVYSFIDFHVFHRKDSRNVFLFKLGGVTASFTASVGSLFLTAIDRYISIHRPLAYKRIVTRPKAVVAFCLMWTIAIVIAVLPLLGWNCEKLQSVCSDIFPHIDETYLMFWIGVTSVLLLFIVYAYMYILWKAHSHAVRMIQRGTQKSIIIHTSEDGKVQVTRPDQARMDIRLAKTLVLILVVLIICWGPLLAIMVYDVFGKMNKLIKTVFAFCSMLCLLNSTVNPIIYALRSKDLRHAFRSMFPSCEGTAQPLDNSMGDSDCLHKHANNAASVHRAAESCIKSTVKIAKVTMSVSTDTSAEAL

Q: What does the source list for CCCCCCC(C)(C)c1cc(O)c(C2CC(=O)C3CC2C3(C)C)c(O)c1 (single isomer, unassigned; (-)) [Compound A, (−)-4-[4-(1,1-Dimethyl-heptyl)2,6-dihydroxy-phenyl]-6,6-dimethyl-bicyclo[3.1.1)heptan-2-one]?
A: inhibition of number of withers as compared to vehicle (Male ICR mice; 0.5 mg/kg i.v.): 64%; number of withers (Male ICR mice; 0.5 mg/kg i.v., mean±SD): 7.9±4.8; inhibition of number of withers as compared to vehicle (Male ICR mice; 1 mg/kg i.v.): 95%; number of withers (Male ICR mice; 1 mg/kg i.v., mean±SD): 1.2±0.6; inhibition of number of withers as compared to vehicle (Male ICR mice; 2 mg/kg i.v.): 100%; number of withers (Male ICR mice; 2 mg/kg i.v.): no withers at all; decrease in ALT in the plasma [1]: 65%; development of tolerance (ICR male mice; 20 administrations): did not cause the development of tolerance; % of animals showing increased analgesia (ICR male mice; day 10): 80%; latency time (ICR male mice; day 10): 7 s; % of animals showing increased analgesia (ICR male mice; day one): 88%; latency time (ICR male mice; day one): 8.1 s; pIC50 (human CB1 receptor): 7.99; inhibition at 1 µM (human CB1 receptor; HEK293, CB1 transfected HEK-293, 1 μM forskolin, read-out: maximal inhibition at 1 μM): 69%

— patent publication US20050020544A1, “Bicyclic CB2 cannabinoid receptor ligands” (priority 2002, published 2005)
